# Measured values taken from patent US20250170176A1, “METHODS OF TREATMENT WITH CAR CELLS IN COMBINATION WITH S1P RECEPTOR MODULATORS” (PRIOTHERA SAS, priority 2022, published 2025).
# Assays:
# CAR-T cells [1] = assay: Absolute numbers of CAR-T cells in blood (Example 3); type: in vivo, mouse (NCG); conditions: mocravimod with CAR-T cells
# Experimental: (§1) To determine the kinetics of cytokine secretion and to evaluate the effectiveness of mocravimod in reducing the level of circulating cytokines when administered in combination with CAR T cells, NOD CRISPR Prkdc 112r Gamma (NCG) mice were injected i.v. with 5×10^6 JEKO-1-luc-GFP tumor cells. Treatment with either mocravimod or vehicle started on day 6 after tumor cell engraftment. Mocravimod (3 mg/kg) was administered every second day. 0.75×10^6 CAR T cells were injected i.v. on day 7 after tumor cell engraftment. Mice were bled 24 h, 48 h, 72 h, 96 h and 120 h post CAR T cell injection and plasma was collected. Interferon-g (IFN-g), Tumor necrosis factor-a (TNF-α) and Interleukin-2 (IL-2) were analyzed in plasma samples using the BD CBA Human Th1/Th2/Th17 cytokine assay. CAR T cells were phenotyped and enumerated in blood.
# The same protocol as example 1 has been conducted for the method of analyzing CAR-T cells in bone marrow and the same protocol as the cytokine assay has been conducted for the method of analyzing CAR-T cells in blood.
# CAR-T cells [2] = assay: CAR-T cell activation markers by flow cytometry in leukemia mice (Example 1); type: in vivo, mouse (C57BL/6J); conditions: KRP203 administered from day −1
# Description: 6 to 8-week-old C57BL/6J male mice were obtained from Envigo. Ubi-GFP RAG1−/−OT-I TCR mice were bred and crossed in our animal facility under specific pathogen-free conditions. All experiments were approved by Institut Pasteur's Safety Committee in accordance with French and European guidelines (CETEA 2017-0038). Immortalized pro-B cells were generated by infecting bone marrow cells with a retrovirus encoding viral-Abelson kinase (v-abl). This tumor cell line was then retrovirally transduced to express a fluorescence resonance energy transfer (FRET)-based reporter for caspase 3 activity. Mice were examined every day and sacrificed in case of prostration, tousled hair, weakness or nodal tumor mass >1 cm. Cells were cultured in RPMI medium 1640-GlutaMAX™ supplemented with 10% heat-inactivated fetal bovine serum, 50 U·mL-1 penicillin, 50 μg·mL-1 streptomycin, 1 mM sodium pyruvate, 10 mM HEPES and 50 μM 2-mercaptoethanol, and maintained at 37° C. and 5% CO2. Cells were routinely tested for the absence of Mycoplasma contamination (Venor-GeM Advance mycoplasma detection kit, Minerva Biolabs). […]
# For ex vivo analysis, bone marrow cells were isolated by flushing femurs and tibias from tumor-bearing mice and subsequent filtering through 70 μm cell strainers. […] Analyses were performed using a Cytoflex LX (Beckman Coulter) flow cytometer and analyzed with FlowJo v10.8.0 (BD). […]
# IFN-g, TNF-α and IL-2 = assay: Kinetics of plasma cytokines (BD CBA Human Th1/Th2/Th17) in JEKO-1 bearing NCG mice given CAR T cells (Example 3); type: in vivo, mouse (NCG); conditions: 5 days after CAR-T cells; mocravimod 3 mg/kg every second day from day 6
# Experimental: as §1
# [3] = tested on: absolute lymphocyte counts; conditions: healthy volunteers; multiple dose applications for 28 days; cited from earlier work
smiles,measurement,setting,value
"NC(CO)(CO)CCc1ccc(Sc2cccc(OCc3ccccc3)c2)cc1Cl [mocravimod, 2-amino-2-[4-(3-benzyloxyphenylthio)-2-chlorophenyl]ethyl-propane-1,3-diol]",absolute number of CAR-T cells in blood,CAR-T cells [1]; day 1 after CAR-T injection,around 500
same,absolute number of CAR-T cells in blood,CAR-T cells [1]; day 3 after CAR-T injection,around 500
same,absolute number of CAR-T cells in blood,CAR-T cells [1]; day 5 after CAR-T injection,around 100
same,"percentage of activation of CAR-T cells in lymph nodes, increase in comparison to the control",CAR-T cells [2],2-3 times
same,level of IFN-g in blood (plasma),"IFN-g, TNF-α and IL-2",around 100 μg/mL
same,level of IL-2 in blood (plasma),"IFN-g, TNF-α and IL-2",around 2 μg/mL
same,level of TNFa in blood (plasma),"IFN-g, TNF-α and IL-2",around 0 μg/mL
CCc1cc(/C(C)=N/OCc2ccc(C3CCCCC3)c(C(F)(F)F)c2)ccc1CN1CC(C(=O)O)C1 [BAF312],Recovery of absolute lymphocyte counts to 80% of normal counts reached after,[3],7 days
